Measured values as given in EP4678638A1, “NEW E3 UBIQUITIN LIGASE LIGAND, PROTEIN DEGRADATION AGENT AND USE THEREOF” (priority 2023, dated 2024).
Read-outs that look alike come from different tables or passages of the source.

Columns and labels:
CDK6 = target: T1, CDK6 (Homo sapiens, UniProt Q00534); assay: Western blot degradation of CDK6 (MDA-MB-231 Cell); assay type: cell-based; conditions: Table D3
T1 construct: evaluate the effects of the compounds of the present disclosure on the expression of target proteins in cells; endogenous in cells; host or cells: MDA-MB-231
Outline: (§1)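 After compound exposure, cells were harvested and lysates run on SDS-PAGE, transferred to nitrocellulose and probed with antibodies. Remaining target (%) was computed from band grayscale relative to an internal control protein and normalised; degradation (%) was 100% minus that.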

CDK4 = target: T2, CDK4 (Homo sapiens, UniProt P11802); assay: Western blot degradation of CDK4 (MDA-MB-231 Cell); assay type: cell-based; conditions: Table D3
T2 construct: evaluate the effects of the compounds of the present disclosure on the expression of target proteins in cells; endogenous in cells; host or cells: MDA-MB-231
Outline: as §1

H1975 = assay: CCK-8 proliferation, NCI-H1975 (H1975); assay type: cell-based, Human; conditions: Homo sapiens, read-out: Inhibitory activity (IC50) on tumor cell proliferation, H1975
Outline: (§2)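 Tumor cells were cultured at 37°C with 5% CO2, seeded, and after 24h treated with compounds at 10 concentrations starting at 10µM (5-fold serial dilutions).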

MV-4-11 = assay: CCK-8 proliferation, MV-4-11; assay type: cell-based, Human; conditions: Homo sapiens, MV4-11; CCK-8; 72 or 96 hours; read-out: Inhibitory activity (IC50) on tumor cell proliferation, MV-4-11
Outline: as §2

22RV1 = assay: CCK-8 proliferation, 22RV1; assay type: cell-based; conditions: Homo sapiens, 96 hours, read-out: Inhibitory activity (IC50) on tumor cell proliferation, 22RV1
Experimental: (§3) The tumor cells used herein were cultured in a cell culture medium listed in table A1 at 37°C in an incubator with 5% CO2. Prior to experimentation, all cell lines used were correctly identified by STR profiling, and tested negative for mycoplasma contamination using a mycoplasma detection kit through routine screenings. Table A1. Tumor cells and cell culture medium used in the present disclosure
(§4) IC50 values of the compounds of the present disclosure (including the compounds in Table 1, and compounds of examples) were measured using the Meilun Cell Counting Kit-8 kit from Dalian Meilun Biotech Co., Ltd. Assay details are as follows: tumor cells were seeded in a 96-well plate at a density listed in Table A2. After 24h, 100 µL of the inoculated cells were treated with 0.5µL of the compounds of the present disclosure (including the compounds in Tables 1 and 2, and compounds of examples) at 10 different successively decreasing concentrations (starting at the highest concentration of 10µM; 5-fold serial dilutions). After the cells were treated with the compounds of the present disclosure for a period of time, the cell viability detection reagent was added to the culture medium for cell viability assessment according to the instructions provided with the CCK-8 kit. […] The growth inhibition of the compounds of the present disclosure on cells was plotted by Prism Graphpad software, and the IC50 values of the compounds of the present disclosure were calculated therefrom. […] Seeding protocol and treatment time for tumor cells

CCRF-CEM = assay: CCK-8 proliferation, CCRF-CEM; assay type: cell-based, Human; conditions: Homo sapiens, CCRF-CEM; CCK-8; 96 hours; read-out: Inhibitory activity (IC50) on tumor cell proliferation, CCRF-CEM
Outline: as §2

SR = assay: CCK-8 proliferation, SR; assay type: cell-based, Human; conditions: Homo sapiens, SR; CCK-8; 72 hours; read-out: Inhibitory activity (IC50) on tumor cell proliferation, SR
Outline: as §2

Kasumi-1 = assay: CCK-8 proliferation, Kasumi-1; assay type: cell-based, Human; conditions: Homo sapiens, Kasumi 1, 72 hours, read-out: Inhibitory activity (IC50) on tumor cell proliferation, Kasumi-1
Experimental: as §3, §4

MM.1S = assay: CCK-8 proliferation, MM.1S; assay type: cell-based; conditions: Homo sapiens, MM1.S; CCK-8; 72 hours; read-out: Inhibitory activity (IC50) on tumor cell proliferation, MM1S
Outline: as §2

MCF7 = assay: CCK-8 proliferation, MCF7 (MCF-7); assay type: cell-based; conditions: Homo sapiens, MCF7; CCK-8; read-out: Inhibitory activity (IC50) on tumor cell proliferation, MCF7
Outline: as §2

T1 sequence (Q00534 whole entry): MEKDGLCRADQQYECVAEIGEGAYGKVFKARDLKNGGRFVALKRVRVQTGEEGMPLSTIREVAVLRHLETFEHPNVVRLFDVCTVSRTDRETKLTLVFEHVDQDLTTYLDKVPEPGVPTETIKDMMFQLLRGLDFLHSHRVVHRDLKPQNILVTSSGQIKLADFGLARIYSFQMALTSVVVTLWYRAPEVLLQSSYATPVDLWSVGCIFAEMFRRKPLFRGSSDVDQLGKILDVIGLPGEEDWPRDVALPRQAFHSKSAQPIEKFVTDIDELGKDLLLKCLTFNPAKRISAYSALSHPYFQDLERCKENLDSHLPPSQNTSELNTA
T2 sequence (P11802 whole entry): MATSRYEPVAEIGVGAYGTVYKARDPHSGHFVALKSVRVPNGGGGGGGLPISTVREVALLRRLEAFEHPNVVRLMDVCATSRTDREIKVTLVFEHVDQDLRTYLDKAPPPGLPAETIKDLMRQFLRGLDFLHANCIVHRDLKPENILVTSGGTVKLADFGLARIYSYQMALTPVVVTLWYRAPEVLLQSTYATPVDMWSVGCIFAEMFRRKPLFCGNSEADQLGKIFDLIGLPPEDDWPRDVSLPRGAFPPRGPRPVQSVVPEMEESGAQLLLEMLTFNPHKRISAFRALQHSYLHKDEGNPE

IC50 (H1975; NCI-H1975, CCK-8, 96 hours) [nM] | IC50 (MV-4-11) [nM] | IC50 (22RV1) [nM] | IC50 (CCRF-CEM) [nM] | IC50 (MM.1S) [nM] | IC50 (MCF7) [nM] | Structure (SMILES) | Degradation of substrate protein CDK6 (substrate protein remaining %) (CDK6) | Degradation of substrate protein CDK4 (substrate protein remaining %) (CDK4) | IC50 (SR) [nM] | IC50 (Kasumi-1) [nM] | IC50 (H1975; NCI-H1975, 96 h) [nM]
500 to 1000 | 10 to 50 | 50 to 100 | 500 to 1000 | – | – | Cc1nc2c(F)cc(-c3nc(Nc4ccc(CN5CCN(Cc6ccc(C7CCC(=O)NC7=O)cc6)CC5)cn4)ncc3F)cc2n1C(C)C (stereo not drawn) [GT-06664, 3-(4-((4-((6-((5-fluoro-4-(4-fluoro-1-isopropyl-2-methyl-1H-benzo[d]imidazol-6-yl)pyrimidin-2-yl)amino)pyridin-3-yl)methyl)piperazin-1-yl)methyl)phenyl)piperidine-2,6-dione] | B (B is defined as substrate protein remaining % > 80%) | A (A is defined as 0% ≤ substrate protein remaining % ≤ 80%) | 100 to 500 | 100 to 500 | –
100 to 500 | 10 to 50 | 10 to 50 | 100 to 500 | 100 to 500 | 50 to 100 | Cc1nc2c(F)cc(-c3nc(Nc4ccc(N5CCC(N(C)Cc6cccc(N7CCC(=O)NC7=O)c6)CC5)cn4)ncc3F)cc2n1C(C)C [GT-06839, 1-(3-(((1-(6-((5-fluoro-4-(4-fluoro-1-isopropyl-2-methyl-1H-benzo[d]imidazol-6-yl)pyrimidin-2-yl)amino)pyridin-3-yl)piperidin-4-yl)(methyl)amino)methyl)phenyl)dihydropyrimidine-2,4(1H,3H)-dione] | A (A is defined as 0% ≤ substrate protein remaining % ≤ 80%) | A (A is defined as 0% ≤ substrate protein remaining % ≤ 80%) | 50 to 100 | 10 to 50 | –
100 to 500 | 10 to 50 | 10 to 50 | 100 to 500 | 100 to 500 | 50 to 100 | Cc1nc2c(F)cc(-c3nc(Nc4ccc(N5CCC(N(C)Cc6ccc(N7CCC(=O)NC7=O)cc6)CC5)cn4)ncc3F)cc2n1C(C)C [GT-06838, 1-(4-(((1-(6-((5-fluoro-4-(4-fluoro-1-isopropyl-2-methyl-1H-benzo[d]imidazol-6-yl)pyrimidin-2-yl)amino)pyridin-3-yl)piperidin-4-yl)(methyl)amino)methyl)phenyl)dihydropyrimidine-2,4(1H,3H)-dione] | B (B is defined as substrate protein remaining % > 80%) | A (A is defined as 0% ≤ substrate protein remaining % ≤ 80%) | 10 to 50 | 50 to 100 | –
100 to 500 | 50 to 100 | 50 to 100 | 100 to 500 | 100 to 500 | 1 to 10 | Cc1nc2c(F)cc(-c3nc(Nc4ccc(N5CCC(N(C)Cc6ccc(N7CCC(=O)NC7=O)cn6)CC5)cn4)ncc3F)cc2n1C(C)C [GT-06840, 1-(6-(((1-(6-((5-fluoro-4-(4-fluoro-1-isopropyl-2-methyl-1H-benzo[d]imidazol-6-yl)pyrimidin-2-yl)amino)pyridin-3-yl)piperidin-4-yl)(methyl)amino)methyl)pyridin-3-yl)dihydropyrimidine-2,4(1H,3H)-dione] | B (B is defined as substrate protein remaining % > 80%) | A (A is defined as 0% ≤ substrate protein remaining % ≤ 80%) | 50 to 100 | 100 to 500 | –
– | 10 to 50 | 50 to 100 | 100 to 500 | – | 100 to 500 | Cc1nc2c(F)cc(-c3nc(Nc4ccc(CN5CCN(Cc6ccc(N7CCC(=O)NC7=O)cn6)CC5)cn4)ncc3F)cc2n1C(C)C [GT-06667, 1-(6-((4-((6-((5-fluoro-4-(4-fluoro-1-isopropyl-2-methyl-1H-benzo[d]imidazol-6-yl)pyrimidin-2-yl)amino)pyridin-3-yl)methyl)piperazin-1-yl)methyl)pyridin-3-yl)dihydropyrimidine-2,4(1H,3H)-dione] | A (A is defined as 0% ≤ substrate protein remaining % ≤ 80%) | A (A is defined as 0% ≤ substrate protein remaining % ≤ 80%) | 100 to 500 | 100 to 500 | –
100 to 500 | 10 to 50 | 10 to 50 | 500 to 1000 | – | 100 to 500 | Cc1nc2c(F)cc(-c3nc(Nc4ccc(CN5CCN(Cc6ccc(N7CCC(=O)NC7=O)cc6)CC5)cn4)ncc3F)cc2n1C(C)C [GT-06665, 1-(4-((4-((6-((5-fluoro-4-(4-fluoro-1-isopropyl-2-methyl-1H-benzo[d]imidazol-6-yl)pyrimidin-2-yl)amino)pyridin-3-yl)methyl)piperazin-1-yl)methyl)phenyl)dihydropyrimidine-2,4(1H,3H)-dione] | A (A is defined as 0% ≤ substrate protein remaining % ≤ 80%) | A (A is defined as 0% ≤ substrate protein remaining % ≤ 80%) | 100 to 500 | 100 to 500 | –
– | 100 to 500 | 10 to 50 | 100 to 500 | – | 100 to 500 | CC(=O)c1c(C)c2cnc(Nc3ccc(N4CCC(N5CCN(Cc6ccc(C7CCC(=O)NC7=O)cc6)CC5)CC4)cn3)nc2n(C2CCCC2)c1=O (stereo not drawn) [GT-06659, 3-(4-((4-(1-(6-((6-acetyl-8-cyclopentyl-5-methyl-7-oxo-7,8-dihydropyrido[2,3-d]pyrimidin-2-yl)amino)pyridin-3-yl)piperidin-4-yl)piperazin-1-yl)methyl)phenyl)piperidine-2,6-dione] | A (A is defined as 0% ≤ substrate protein remaining % ≤ 80%) | A (A is defined as 0% ≤ substrate protein remaining % ≤ 80%) | – | 100 to 500 | –
100 to 500 | 10 to 50 | 10 to 50 | 100 to 500 | 100 to 500 | – | Cc1nc2c(F)cc(-c3nc(Nc4ccc(N5CCC(N(C)Cc6ccc(C7CCC(=O)NC7=O)cc6)CC5)cn4)ncc3F)cc2n1C(C)C (stereo not drawn) [GT-06735, 3-(4-(((1-(6-((5-fluoro-4-(4-fluoro-1-isopropyl-2-methyl-1H-benzo[d]imidazol-6-yl)pyrimidin-2-yl)amino)pyridin-3-yl)piperidin-4-yl)(methyl)amino)methyl)phenyl)piperidine-2,6-dione] | A (A is defined as 0% ≤ substrate protein remaining % ≤ 80%) | A (A is defined as 0% ≤ substrate protein remaining % ≤ 80%) | 50 to 100 | 100 to 500 | –
100 to 500 | 10 to 50 | 10 to 50 | 50 to 100 | 100 to 500 | 10 to 50 | Cc1nc2c(F)cc(-c3nc(Nc4ccc(N5CCC(N6CCN(Cc7ccc(N8CCC(=O)NC8=O)nc7)CC6)CC5)cn4)ncc3F)cc2n1C(C)C [GT-06742, 1-(5-((4-(1-(6-((5-fluoro-4-(4-fluoro-1-isopropyl-2-methyl-1H-benzo[d]imidazol-6-yl)pyrimidin-2-yl)amino)pyridin-3-yl)piperidin-4-yl)piperazin-1-yl)methyl)pyridin-2-yl)dihydropyrimidine-2,4(1H,3H)-dione] | – | – | 10 to 50 | 100 to 500 | –

Structure (SMILES) | IC50 (H1975; NCI-H1975, CCK-8, 96 hours) [nM] | IC50 (MV-4-11) [nM] | IC50 (22RV1) [nM] | IC50 (CCRF-CEM) [nM] | IC50 (MM.1S) [nM] | IC50 (MCF7) [nM] | Degradation of substrate protein CDK6 (substrate protein remaining %) (CDK6) | Degradation of substrate protein CDK4 (substrate protein remaining %) (CDK4) | IC50 (SR) [nM] | IC50 (Kasumi-1) [nM] | IC50 (H1975; NCI-H1975, 96 h) [nM]
CCN1CCN(Cc2ccc(Nc3ncc(F)c(-c4cc(F)c5nc(C)n(C(C)C)c5c4)n3)nc2)CC1 [abemaciclib, reference compound] | – | 50 to 100 | 10 to 50 | 1000 to 5000 | 1000 to 5000 | 1000 to 5000 | – | – | 500 to 1000 | 500 to 1000 | 1000 to 5000
